Laboratory results from patent US20240116912A1, “COMPOUNDS AND METHODS FOR MODULATING FXR” (Terns Pharmaceuticals, Inc., priority 2020, published 2024).

Legend:
[1] = target: ligand binding domain (LBD) of recombinant human FXR (Homo sapiens (Human), UniProt Q96RI1); assay: FXR cell free coactivator (SRC-1) recruitment assay, TR-FRET; conditions: FXR LBD (amino acids 244-476) with labeled SRC-1 domain, 25° C. for 60 minutes, activity relative to CDCA maximum; read-out: EC50 FXR- Biochemical TR-FRET/μM
Procedure: A cell free coactivator recruitment assay was developed for FXR, to measure the functional potency of novel FXR compounds. In this assay, novel FXR compounds were bound to the ligand binding domain (LBD) of recombinant human FXR. The ability of this liganded homodimeric complex to recruit the co-activator protein steroid receptor coactivator 1 (SRC-1) was measured using Time-Resolved Fluorescence Resonance Energy Transfer (TR-FRET).
The LBD of human FXR (amino acids 244-476) was cloned into an expression vector for protein expression in SF9 insect cells. Purified FXR LBD was incubated in TR-FRET coregulator buffer G (Eurofins) with test compounds (0-10 micromolar) and a labeled nuclear receptor interaction domain of SRC-1 at 25° C. for 60 minutes (final DMSO vehicle concentration was 1.2%). Assays were analyzed using an Envision TR-FRET reader (PerkinElmer Life and Analytical Sciences). Compound activity at each concentration was defined as a percentage of the maximal activity of the natural FXR ligand agonist chenodeoxycholic acid (CDCA) generating a dose response curve.

[2] = target: full length human FXR protein (Homo sapiens (Human), UniProt Q96RI1); assay: FXR cellular assay (FXR-SRCP β-gal enzyme fragment complementation in CHO-K1 cells, chemiluminescence); format: cell-based; conditions: CHO-K1 cells with SRCP-EA and ProLink-labeled FXR, 0-10 micromolar compound, 37° C. for 6h, read-out: EC50 FXR-cell Luminescence/
Source text: A cell based FXR assay was used to detect protein-protein interactions between an activated (ligand-bound), full length human FXR protein and a nuclear fusion protein containing a Steroid Receptor Coactivator Peptide (SCRP) domain. In this approach, two weakly complementing fragments of the 3-gal enzyme were expressed within stably transfected Chinese Hamster Ovary (CHO-K1) cells. The complementing fragments of the 3-gal enzyme (ProLink, PK; and Enzyme Acceptor, EA) were translationally fused to the C-terminus of a full-length FXR and to the SRCP, respectively. Complementation was driven by the protein-protein interaction between SRCP-EA and a ProLink-labeled FXR. Upon FXR-SRCP binding, the two fragments of 3-gal complement, forming a functional enzyme capable of hydrolyzing a substrate molecule and generating a chemiluminescent signal.
CHO-K1 cells containing SRCP-EA and ProLink-labeled FXR were plated in 384-well microplates and incubated at 37° C. overnight. A positive control FXR agonist, GW4064 (0-10 micromolar), or test compounds (0-10 micromolar) were added to plated cells and incubated at 37° C. for 6h (final DMSO vehicle concentration was 1%). The assay signal was generated by addition of 50% (v/v) detection reagent (19:5:1, cell assay buffer: substrate reagent 1: substrate reagent 2, DiscoverX) followed by incubation for 1h at ambient room temperature. Microplates were analyzed using an Envision reader (PerkinElmer Life and Analytical Sciences, Signal=chemiluminescence).

Sequence of ligand binding domain (LBD) of recombinant human FXR (Q96RI1 254-486): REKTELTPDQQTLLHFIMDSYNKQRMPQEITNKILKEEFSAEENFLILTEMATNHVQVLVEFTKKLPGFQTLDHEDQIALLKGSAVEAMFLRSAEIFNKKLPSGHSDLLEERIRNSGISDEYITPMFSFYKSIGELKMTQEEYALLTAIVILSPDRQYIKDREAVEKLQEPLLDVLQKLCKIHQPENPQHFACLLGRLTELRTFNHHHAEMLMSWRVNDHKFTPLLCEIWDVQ
Sequence of ligand binding domain (LBD) of recombinant human FXR (Q15788 whole entry partner, the tested form may be a part): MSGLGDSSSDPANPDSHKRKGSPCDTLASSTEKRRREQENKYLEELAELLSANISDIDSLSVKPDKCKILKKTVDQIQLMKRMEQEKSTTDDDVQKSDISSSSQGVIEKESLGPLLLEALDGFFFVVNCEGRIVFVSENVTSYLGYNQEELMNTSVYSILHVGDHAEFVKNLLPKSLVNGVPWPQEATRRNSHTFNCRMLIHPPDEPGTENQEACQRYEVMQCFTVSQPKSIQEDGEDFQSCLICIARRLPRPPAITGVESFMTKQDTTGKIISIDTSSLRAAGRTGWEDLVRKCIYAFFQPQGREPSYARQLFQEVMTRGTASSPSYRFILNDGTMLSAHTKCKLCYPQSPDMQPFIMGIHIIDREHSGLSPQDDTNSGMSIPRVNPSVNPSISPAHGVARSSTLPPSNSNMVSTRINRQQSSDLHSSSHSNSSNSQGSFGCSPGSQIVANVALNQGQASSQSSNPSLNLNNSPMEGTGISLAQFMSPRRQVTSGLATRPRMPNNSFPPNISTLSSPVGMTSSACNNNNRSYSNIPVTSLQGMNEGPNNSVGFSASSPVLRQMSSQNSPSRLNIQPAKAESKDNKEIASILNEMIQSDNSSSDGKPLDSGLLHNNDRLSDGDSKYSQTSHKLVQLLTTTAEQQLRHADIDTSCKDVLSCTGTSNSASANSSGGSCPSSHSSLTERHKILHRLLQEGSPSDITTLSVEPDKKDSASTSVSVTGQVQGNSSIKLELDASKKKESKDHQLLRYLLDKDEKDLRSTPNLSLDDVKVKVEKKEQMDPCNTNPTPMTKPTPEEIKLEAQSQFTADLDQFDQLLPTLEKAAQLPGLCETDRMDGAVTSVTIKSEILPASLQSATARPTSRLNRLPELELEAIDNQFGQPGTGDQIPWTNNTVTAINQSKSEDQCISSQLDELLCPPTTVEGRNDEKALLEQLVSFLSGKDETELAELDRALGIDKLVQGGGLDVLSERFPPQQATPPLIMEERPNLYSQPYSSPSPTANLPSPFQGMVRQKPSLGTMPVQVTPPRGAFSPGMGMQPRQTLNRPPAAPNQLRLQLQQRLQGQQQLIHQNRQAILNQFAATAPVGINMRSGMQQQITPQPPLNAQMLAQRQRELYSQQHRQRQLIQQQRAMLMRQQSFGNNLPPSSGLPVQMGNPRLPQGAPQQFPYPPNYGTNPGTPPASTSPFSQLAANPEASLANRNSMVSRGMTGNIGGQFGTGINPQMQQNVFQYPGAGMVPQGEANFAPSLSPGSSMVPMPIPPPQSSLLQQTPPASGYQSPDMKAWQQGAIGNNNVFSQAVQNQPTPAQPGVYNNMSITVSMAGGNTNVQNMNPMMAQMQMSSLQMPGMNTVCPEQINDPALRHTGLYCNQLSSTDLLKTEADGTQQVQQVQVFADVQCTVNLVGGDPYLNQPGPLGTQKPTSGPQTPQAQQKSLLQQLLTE
Sequence of full length human FXR protein (Q96RI1 whole entry, the tested form may be a part): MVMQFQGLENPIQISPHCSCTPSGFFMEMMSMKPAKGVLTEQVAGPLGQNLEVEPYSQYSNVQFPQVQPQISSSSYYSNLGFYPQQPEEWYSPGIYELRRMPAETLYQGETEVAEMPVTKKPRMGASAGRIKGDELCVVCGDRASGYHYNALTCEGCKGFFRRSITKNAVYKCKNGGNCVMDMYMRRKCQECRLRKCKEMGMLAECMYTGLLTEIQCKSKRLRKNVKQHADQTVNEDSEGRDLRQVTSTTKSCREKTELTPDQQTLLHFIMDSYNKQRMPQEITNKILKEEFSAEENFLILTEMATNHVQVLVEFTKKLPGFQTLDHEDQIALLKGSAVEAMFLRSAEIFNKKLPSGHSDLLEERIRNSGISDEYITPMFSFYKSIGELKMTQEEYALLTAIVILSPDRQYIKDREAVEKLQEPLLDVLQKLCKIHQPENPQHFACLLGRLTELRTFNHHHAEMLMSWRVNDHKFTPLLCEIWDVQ

Row | Compound | EC50 [1] [µM] | EC50 [2] [µM]
1 | C[C@@H]1CN(c2ccc(-c3noc(=O)[nH]3)cc2)CC[C@H]1OCc1c(-c2c(Cl)cccc2Cl)noc1C1CC1 [Example 34, 3-(4-((3R,4R)-4-((5-cyclopropyl-3-(2,6-dichlorophenyl)isoxazol-4-yl)methoxy)-3-methylpiperidin-1-yl)phenyl)-1,2,4-oxadiazol-5(4H)-one] | 0.153 | 0.785
2 | O=c1[nH]nc(-c2ccc(N3[C@@H]4CC[C@H]3C[C@@H](OCc3c(-c5ccccc5OC(F)(F)F)noc3C3CC3)C4)cc2)o1 [Example 65, 5-(4-((1R,3r,5S)-3-((5-cyclopropyl-3-(2-(trifluoromethoxy)phenyl)isoxazol-4-yl)methoxy)-8-azabicyclo[3.2.1]octan-8-yl)phenyl)-1,3,4-oxadiazol-2(3H)-one] | 0.0221 | 0.954
3 | O=c1[nH]nc(-c2ccc(N3CCC(OCc4c(-c5ccccc5OC(F)(F)F)noc4C4CC4)CC3)nc2)o1 [Example 61, 5-(6-(4-((5-cyclopropyl-3-(2-(trifluoromethoxy)phenyl)isoxazol-4-yl)methoxy)piperidin-1-yl)pyridin-3-yl)-1,3,4-oxadiazol-2(3H)-one] | 0.298 | 1.92
4 | O=c1[nH]c(-c2ccc(N3CCC(OCc4c(-c5c(F)cccc5F)noc4C4CC4)C(F)(F)C3)cc2)no1 (centres unmarked) [Example 55, 3-(4-(4-((5-cyclopropyl-3-(2,6-difluorophenyl)isoxazol-4-yl)methoxy)-3,3-difluoropiperidin-1-yl)phenyl)-1,2,4-oxadiazol-5(4H)-one] | 0.174 | 0.852
5 | C[C@@H]1CN(c2ccc(-c3noc(=O)[nH]3)cc2)CC[C@@H]1OCc1c(-c2c(Cl)cccc2Cl)noc1C1CC1 [Example 31, 3-(4-((3R,4S)-4-((5-cyclopropyl-3-(2,6-dichlorophenyl)isoxazol-4-yl)methoxy)-3-methylpiperidin-1-yl)phenyl)-1,2,4-oxadiazol-5(4H)-one] | 0.045 | 0.271
6 | O=c1[nH]nc(-c2ccc(N3CCC(OCc4c(-c5ccccc5OC(F)(F)F)noc4C4CC4)CC3)cc2)c(=O)[nH]1 [Example 57, 6-(4-(4-((5-cyclopropyl-3-(2-(trifluoromethoxy)phenyl)isoxazol-4-yl)methoxy)piperidin-1-yl)phenyl)-1,2,4-triazine-3,5(2H,4H)-dione] | 0.0847 | 0.497
7 | O=c1[nH]c(-c2ccc(N3CCC(OCc4c(-c5c(Cl)cccc5Cl)noc4C4CC4)CC3)c(F)c2)no1 [Example 39, 3-(4-(4-((5-cyclopropyl-3-(2,6-dichlorophenyl)isoxazol-4-yl)methoxy)piperidin-1-yl)-3-fluorophenyl)-1,2,4-oxadiazol-5(4H)-one] | 0.0161 | 0.154
8 | O=c1[nH]c(-c2ccc(N3CCC(OCc4c(-c5ccccc5OC(F)(F)F)noc4C4CC4)C(F)(F)C3)nc2)no1 (centres unmarked) [Example 64, 3-(6-(4-((5-cyclopropyl-3-(2-(trifluoromethoxy)phenyl)isoxazol-4-yl)methoxy)-3,3-difluoropiperidin-1-yl)pyridin-3-yl)-1,2,4-oxadiazol-5(4H)-one] | 0.07 | 2.31
9 | C[C@H]1C[C@@H](OCc2c(-c3c(Cl)cccc3Cl)noc2C2CC2)CCN1c1ccc(-c2noc(=O)[nH]2)cc1 [Example 22, 3-(4-((2S,4S)-4-((5-cyclopropyl-3-(2,6-dichlorophenyl)isoxazol-4-yl)methoxy)-2-methylpiperidin-1-yl)phenyl)-1,2,4-oxadiazol-5(4H)-one] | 0.0633 | 0.418
10 | O=c1[nH]nc(-c2ccc(N3CCC(OCc4c(-c5c(Cl)cccc5Cl)noc4C4CC4)CC3)nc2)c(=O)[nH]1 [Example 43, 6-(6-(4-((5-cyclopropyl-3-(2,6-dichlorophenyl)isoxazol-4-yl)methoxy)piperidin-1-yl)pyridin-3-yl)-1,2,4-triazine-3,5(2H,4H)-dione] | 0.0112 | 0.248
11 | O=c1[nH]c(-c2ccc(N3CCC(OCc4c(-c5c(F)cccc5F)noc4C4CC4)CC3)cc2)no1 [Example 26, 3-(4-(4-((5-cyclopropyl-3-(2,6-difluorophenyl)isoxazol-4-yl)methoxy)piperidin-1-yl)phenyl)-1,2,4-oxadiazol-5(4H)-one] | 0.111 | 0.562
12 | O=c1[nH]c(-c2ccc(N3CCC(OCc4c(-c5c(F)cccc5F)noc4C4CC4)CC3)nc2)no1 [Example 74, 3-(6-(4-((5-cyclopropyl-3-(2,6-difluorophenyl)isoxazol-4-yl)methoxy)piperidin-1-yl)pyridin-3-yl)-1,2,4-oxadiazol-5(4H)-one] | 0.107 | 1.45
13 | O=c1cc(-c2ccc(N3CCC(OCc4c(-c5ccccc5OC(F)(F)F)noc4C4CC4)CC3)nc2)o[nH]1 [Example 60, 5-(6-(4-((5-cyclopropyl-3-(2-(trifluoromethoxy)phenyl)isoxazol-4-yl)methoxy)piperidin-1-yl)pyridin-3-yl)isoxazol-3(2H)-one] | 0.104 | 0.779
14 | O=c1[nH]nc(-c2ccc(N3CCC(OCc4c(-c5c(Cl)cccc5Cl)noc4C4CC4)CC3)cc2)o1 [Example 12, 5-(4-(4-((5-cyclopropyl-3-(2,6-dichlorophenyl)isoxazol-4-yl)methoxy)piperidin-1-yl)phenyl)-1,3,4-oxadiazol-2(3H)-one] | 0.0737 | 0.437
15 | O=c1cc(-c2ccc(N3[C@@H]4CC[C@H]3C[C@@H](OCc3c(-c5ccccc5OC(F)(F)F)noc3C3CC3)C4)nc2)o[nH]1 [Example 69, 5-(6-((1R,3r,5S)-3-((5-cyclopropyl-3-(2-(trifluoromethoxy)phenyl)isoxazol-4-yl)methoxy)-8-azabicyclo[3.2.1]octan-8-yl)pyridin-3-yl)isoxazol-3(2H)-one] | 0.0095 | 0.0576
16 | O=c1[nH]nc(-c2ccc(N3[C@@H]4CC[C@H]3C[C@@H](OCc3c(-c5ccccc5OC(F)(F)F)noc3C3CC3)C4)cc2)c(=O)[nH]1 [Example 67, 6-(4-((1R,3r,5S)-3-((5-cyclopropyl-3-(2-(trifluoromethoxy)phenyl)isoxazol-4-yl)methoxy)-8-azabicyclo[3.2.1]octan-8-yl)phenyl)-1,2,4-triazine-3,5(2H,4H)-dione] | 0.0127 | 0.0657
17 | O=c1[nH]nc(-c2ccc(N3CCC(OCc4c(-c5c(Cl)cccc5Cl)noc4C4CC4)CC3)cn2)o1 [Example 40, 5-(5-(4-((5-cyclopropyl-3-(2,6-dichlorophenyl)isoxazol-4-yl)methoxy)piperidin-1-yl)pyridin-2-yl)-1,3,4-oxadiazol-2(3H)-one] | 0.076 | 0.341
18 | Clc1cccc(Cl)c1-c1noc(C2CC2)c1COC1CCN(c2ccc(C3=NN3)cc2)CC1 [Example 2, 4-(((1-(4-(1H-diazirin-3-yl)phenyl)piperidin-4-yl)oxy)methyl)-5-cyclopropyl-3-(2,6-dichlorophenyl)isoxazole] | 2.89 | 0.691
19 | O=c1cnn(-c2ccc(N3CCC(OCc4c(-c5c(Cl)cccc5Cl)noc4C4CC4)CC3)cc2)c(=O)[nH]1 [Example 17, 2-(4-(4-((5-cyclopropyl-3-(2,6-dichlorophenyl)isoxazol-4-yl)methoxy)piperidin-1-yl)phenyl)-1,2,4-triazine-3,5(2H,4H)-dione] | 6.07 | 4.73
